Tested on: SK-MEL-28 cells (B-RAF V600E mutated)
Experiment: Inhibition of the proliferation of cultivated human melanoma cells (SK-MEL-28), AlamarBlue
Format: cell-based
Details: SK-MEL-28 melanoma cells, 72 h incubation
Method: Measurement of the Inhibition of the Proliferation of Cultivated Human Melanoma Cells (SK-MEL-28, B-RAF^V600E mutated)
For measuring the proliferation of cultivated human tumour cells, cells of the melanoma cell line SK-MEL-28 [from American Type Culture Collection (ATCC)] are cultivated in MEM medium, supplemented with 10% foetal calf serum, 2% sodium bicarbonate, 1 mM sodium pyruvate, 1% non-essential amino acids (e.g. from Cambrex, # BE13-114E) and 2 mM glutamine. SK-MEL-28 cells are placed in 96-well flat bottomed dishes in a density of 2500 cells per well in supplemented MEM medium (see above) and incubated overnight in an incubator (at 37° C. and 5% CO2). The active substances are added to the cells in different concentrations, so that a concentration range of 50 μM to 3.2 nM is covered. If necessary the initial concentration of 50 μM is changed to 10 μM or 2 μM and further dilution is carried out accordingly (up to 0.6 nM or 0.12 nM). After an incubation period of a further 72 h 20 μL AlamarBlue reagent (Serotec Ltd., # BUF012B) are added to each well and the cells are incubated for a further 3-6 h. The colour change of the AlamarBlue reagent is determined in a fluorescence spectrophotometer (e.g. Gemini, Molecular Devices). EC50 values are calculated using a software program (GraphPadPrizm).

| Structure (SMILES) | EC50 (Homo sapiens, SK-MEL-28, 72 h) [nM] | EC50 [nM] |
| --- | --- | --- |
| CCCS(=O)(=O)Nc1ccc(F)c(Nc2ncnc3cnc(N4CCN(CCOC)CC4)nc23)c1F [Example I-3] | 1190 |  |
| CCCS(=O)(=O)Nc1ccc(F)c(Nc2ncnc3cnc(-n4ccnc4C)nc23)c1F [Example I-32] | 297 |  |
| CCCS(=O)(=O)Nc1ccc(F)c(Nc2ncnc3cnc(-n4cc(C)nc4C)nc23)c1F [Example I-26] | 212 |  |
| CCCS(=O)(=O)Nc1ccc(F)c(Nc2ncnc3cnc(NCCOC)nc23)c1F [Example I-33] | 1800 |  |
| CCCS(=O)(=O)Nc1ccc(F)c(Nc2ncnc3cnc(NC4CCN(CCOC)CC4)nc23)c1F [Example I-17] | 1600 |  |
| CCCS(=O)(=O)Nc1ccc(F)c(Nc2ncnc3cnc(NC4CCN(C)CC4)nc23)c1F [Example I-13] | 1480 |  |
| CCCS(=O)(=O)Nc1ccc(F)c(Nc2ncnc3cnc(N4CCOCC4)nc23)c1F [Example I-2] | 514 |  |
| CCCS(=O)(=O)Nc1ccc(F)c(Nc2ncnc3cnc(-n4cncn4)nc23)c1F [Example I-24] | 1500 |  |
| CCCS(=O)(=O)Nc1ccc(F)c(Nc2ncnc3cnc(N4CCN(C5CCN(C)CC5)CC4)nc23)c1F [Example I-11] | 1070 |  |
| CCCS(=O)(=O)Nc1ccc(F)c(Nc2ncnc3cnc(N4CCC(C(C)N(C)C)CC4)nc23)c1F (stereo not drawn) [Example I-20] | 1590 |  |
| CCCS(=O)(=O)Nc1ccc(F)c(Nc2ncnc3cnc(N4CCN(C)CC4)nc23)c1F [Example I-4] | 1480 |  |
| CCCS(=O)(=O)Nc1ccc(F)c(Nc2ncnc3cnc(N4CC[C@H](F)C4)nc23)c1F [Example I-8] |  | 522 |
| CCCS(=O)(=O)Nc1ccc(F)c(Nc2ncnc3cnc(N4CCC(CN(C)C)CC4)nc23)c1F [Example I-19] | 1250 |  |
| CCCS(=O)(=O)Nc1ccc(F)c(Nc2ncnc3cnc(N4CC[C@H](F)C4)nc23)c1F [Example I-7] |  | 176 |
| CCCS(=O)(=O)Nc1ccc(F)c(Nc2ncnc3cnc(N4CCC(CN5CCCC5)CC4)nc23)c1F [Example I-12] | 952 |  |
| CCCS(=O)(=O)Nc1ccc(F)c(Nc2ncnc3cnc(Nc4ccc(N5CCN(C)CC5)cc4)nc23)c1F [Example I-29] | 526 |  |
| CCCS(=O)(=O)Nc1ccc(F)c(Nc2ncnc3cnc(-n4cccn4)nc23)c1F [Example I-31] | 936 |  |

| Structure (SMILES) | EC50 (Homo sapiens, SK-MEL-28, 72 h) [nM] | EC50 [nM] |
| --- | --- | --- |
| CCCS(=O)(=O)Nc1ccc(F)c(Nc2ncnc3cnc(N(C)C)nc23)c1F [Example I-23] | 1630 |  |
| CCCS(=O)(=O)Nc1ccc(F)c(Nc2ncnc3cnc(-n4ccnc4)nc23)c1F [Example I-30] | 504 |  |
| CCCS(=O)(=O)Nc1ccc(F)c(Nc2ncnc3cnc(N[C@H]4CCOC4)nc23)c1F [Example I-22] | 919 |  |
| CCCS(=O)(=O)Nc1ccc(F)c(Nc2ncnc3cnc(N4CCC(CN(CC)CC)CC4)nc23)c1F [Example I-14] | 1670 |  |
| CCCS(=O)(=O)Nc1ccc(F)c(Nc2ncnc3cnc(NC4CC(N5CCN(C)CC5)C4)nc23)c1F (stereo not drawn) [Example I-10] | 1270 |  |
| CCCS(=O)(=O)Nc1ccc(F)c(Nc2ncnc3cnc(N4C[C@@H](C)O[C@@H](C)C4)nc23)c1F [Example I-18] | 774 |  |
| CCCS(=O)(=O)Nc1ccc(F)c(Nc2ncnc3cnc(N4CCC5(CCN(C)CC5)CC4)nc23)c1F [Example I-21] | 440 |  |
| CCCS(=O)(=O)Nc1ccc(F)c(Nc2ncnc3cnc(-n4ccc(C)n4)nc23)c1F [Example I-27] | 807 |  |
| CCCS(=O)(=O)Nc1ccc(F)c(Nc2ncnc3cnc(-n4cnc(C)c4C)nc23)c1F [Example I-25] | 143 |  |
| CCCS(=O)(=O)Nc1ccc(F)c(Nc2ncnc3cnc(N4CCC(F)(F)C4)nc23)c1F [Example I-6] | 493 |  |
| CCCS(=O)(=O)Nc1ccc(F)c(Nc2ncnc3cnc(NC4CCOC4)nc23)c1F (stereo not drawn) [Example I-5] | 668 |  |
| CCCS(=O)(=O)Nc1ccc(F)c(Nc2ncnc3cnc(Nc4ccncc4)nc23)c1F [Example I-28] | 424 |  |
| CCCS(=O)(=O)Nc1ccc(F)c(Nc2ncnc3cnc(N[C@H]4CC[C@H](N5CCOCC5)CC4)nc23)c1F [Example I-16] | 1030 |  |
| CCCS(=O)(=O)Nc1ccc(F)c(Nc2ncnc3cnc(N4CCN(CCN5CCOCC5)CC4)nc23)c1F [Example I-9] | 1140 |  |
| CCCS(=O)(=O)Nc1ccc(F)c(Nc2ncnc3cnc(-n4cnc(C)c4)nc23)c1F [Example I-1] | 276 |  |
| CCCS(=O)(=O)Nc1ccc(F)c(Nc2ncnc3cnc(N4CCN(CCN(C)C)CC4)nc23)c1F [Example I-15] | 781 |  |

Reference: patent US20130023531A1, “PYRIMIDO[5,4-D]PYRIMIDYLAMINO PHENYL SULFONAMIDES AS SERINE/THREONINE KINASE INHIBITORS” (BOEHRINGER INGELHEIM INTERNATIONAL GMBH, priority 2011, published 2013)
